Measured values from ChEMBL document CHEMBL1201862, “PubChem BioAssay data set” (2004).
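Five concentrations, 48 hours, 96-well plates. GI50 is the concentration that inhibits growth by half.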 Activity calls are given as the source filed them. Cut-off read from the data, not from the text of the source: active = GI50 up to about 1.1 µM and inactive = higher.

Columns and labels:
Assay in all cases: NCI-60 cell line screen, 48 h
TK-10 = tested on: TK-10
OVCAR-8 = tested on: OVCAR-8
OVCAR-3 = tested on: OVCAR-3
A498 = tested on: A498
CAKI-1 = tested on: CAKI-1
NCI-H23 = tested on: NCI-H23
ACHN = tested on: ACHN
HOP-62 = tested on: HOP-62
SNB-75 = tested on: SNB-75
RPMI-8226 = tested on: RPMI-8226
KM12 = tested on: KM12
SF-539 = tested on: SF-539
NCI-H226 = tested on: NCI-H226
NCI-H522 = tested on: NCI-H522
MDA-MB-435 = tested on: MDA-MB-435
HCC 2998 = tested on: HCC 2998
SR = tested on: SR
MCF7 = tested on: MCF7

Measured: GI50

N#CC(C(=O)c1cccnc1Cl)c1nc2cc(C(F)(F)F)ccc2s1 (centres undefined)
inactive: TK-10 55.5 µM | OVCAR-8 > 100 µM | OVCAR-3 > 100 µM | A498 26.7 µM | CAKI-1 > 100 µM | NCI-H23 30.8 µM | ACHN > 100 µM | HOP-62 34.8 µM | SNB-75 25.3 µM | RPMI-8226 41.6 µM | KM12 58.9 µM | SF-539 99.3 µM | NCI-H226 44.2 µM | NCI-H522 19.8 µM | MDA-MB-435 47.2 µM

COc1ccc2c(=O)c([Se]c3coc4cc(OC)ccc4c3=O)coc2c1
inactive: TK-10 > 100 µM | OVCAR-8 41.7 µM | HCC 2998 > 100 µM | OVCAR-3 > 100 µM | A498 57.3 µM | CAKI-1 > 100 µM | NCI-H23 34.9 µM | ACHN 72.1 µM | HOP-62 > 100 µM | SNB-75 20.8 µM | SR 44.1 µM | RPMI-8226 > 100 µM | KM12 41.1 µM | SF-539 69 µM | NCI-H226 52 µM | NCI-H522 > 100 µM

COc1ccc(C(=C[N+](=O)[O-])c2ccc(OC)cc2)cc1
inactive: TK-10 25.4 µM | OVCAR-8 13 µM | HCC 2998 11.4 µM | OVCAR-3 14.1 µM | A498 8.2 µM | CAKI-1 11.6 µM | NCI-H23 12.7 µM | ACHN 30.1 µM | HOP-62 13.3 µM | SNB-75 1.87 µM | SR 4.38 µM | RPMI-8226 3.84 µM | KM12 4.5 µM | SF-539 10.9 µM | NCI-H226 24.3 µM | NCI-H522 4.45 µM

CC(=O)NC(NCCN)(c1ccccc1)c1ccccc1
inactive: TK-10 > 100 µM | OVCAR-8 > 100 µM | HCC 2998 > 100 µM | A498 59.4 µM | NCI-H23 > 100 µM | ACHN > 100 µM | HOP-62 > 100 µM | SNB-75 > 100 µM | SR > 100 µM | RPMI-8226 > 100 µM | MCF7 > 100 µM | KM12 > 100 µM | SF-539 > 100 µM | NCI-H226 > 100 µM | MDA-MB-435 > 100 µM

CC1=C(SC#N)S(=O)(=O)N(c2ccccc2)C(C)=C1SC#N
inactive: TK-10 > 100 µM | OVCAR-8 15.1 µM | HCC 2998 > 100 µM | OVCAR-3 > 10 µM | A498 22.6 µM | CAKI-1 45.2 µM | NCI-H23 48.2 µM | ACHN 44 µM | HOP-62 > 10 µM | SNB-75 27 µM | SR 24.4 µM | RPMI-8226 28.5 µM | KM12 60.4 µM | SF-539 43.3 µM | NCI-H226 36.2 µM | NCI-H522 18 µM

CCOC(=O)CC(NC(=O)c1nc[nH]c1[N+](=O)[O-])C(=O)OCC (centres undefined)
inactive: TK-10 24 µM | OVCAR-8 32.1 µM | HCC 2998 30.5 µM | OVCAR-3 38.6 µM | A498 61.7 µM | CAKI-1 47 µM | NCI-H23 22.6 µM | ACHN 42.2 µM | HOP-62 46.7 µM | SNB-75 > 100 µM | SR 44.3 µM | RPMI-8226 29.2 µM | KM12 65.8 µM | SF-539 59.6 µM | NCI-H226 23 µM | NCI-H522 48.9 µM

Nc1ccc(S(=O)(=O)Nc2nnc(S(N)(=O)=O)s2)cc1
inactive: TK-10 > 100 µM | HCC 2998 > 100 µM | A498 > 100 µM | CAKI-1 > 100 µM | NCI-H23 > 100 µM | ACHN > 100 µM | SNB-75 > 100 µM | SR > 100 µM | RPMI-8226 > 100 µM | MCF7 > 100 µM | KM12 > 100 µM | SF-539 > 100 µM | NCI-H226 45.4 µM | NCI-H522 > 100 µM | MDA-MB-435 > 100 µM
